Data taken from US20210393645A1, “TREATMENT FOR PROGRESSIVE MULTIPLE SCLEROSIS” (UTI LIMITED PARTNERSHIP, priority 2016, published 2021).
Counter-ions that a name gives are not always drawn.

tested on: human neurons; experiment: Iron (FeSO4) mediated neurotoxicity screening, MAP-2 positive neurons counted; format: cell-based; conditions: not given
Method: Human neurons were isolated from brain tissues of therapeutically aborted 15-20 week old fetuses, in accordance with ethics approval of the University of Calgary ethics committee, after written informed consent of the pregnant donors. Neurons were isolated as previously described (Vecil et al., 2000) brain specimens were washed in phosphate buffered saline (PBS) to remove blood, followed by removal of meninges. […] Thereafter, the digestion was stopped by addition of 4 ml fetal calf serum (FCS). […] Cells were cultured in feeding medium of minimal essential medium (MEM) supplemented with 10% fetal bovine serum (FBS), 1 μM sodium pyruvate, 10 μM glutamine, 1× non-essential amino acids, 0.1% dextrose and 1% penicillin/streptomycin (all culture supplements from Invitrogen, Burlington, Canada). […] For experiments, the neuron-enriched cultures were retrypsinized and cells were plated in poly-L-ornithine pre-coated 96-well plates at a density of 100,000 cells/well in 100 μl of the complete medium supplemented with cytosine arabinoside. […] All conditions were performed in quadruplicates. A day later cells were fixed using 4% paraformaldehyde (PFA) and stored in PBS in 4° C.
Briefly, there were 80 compounds located in specific wells on each plate (e. g. B07). […] Each compound was supplied at a concentration of 10 mM dissolved in DMSO.
After filtering with a 0.2 μm filter, FeSO4 was added to cells in a final concentration of 25-50 μM in a volume of 50 μl medium to the cells. Rotenone was dissolved in dimethyl sulfoxide (DMSO) and used in a final concentration of 10 μM.
Staining was performed at room temperature. A blocking buffer was first introduced for 1 h followed by incubation with primary antibody overnight in 4° C.
Cell nuclei were stained with Hoechst S769121 (nuclear yellow). Cells were stored in 4° C. in the dark before imaging.
Images were taken using the automated ImageXpress® imaging system (Molecular Devices, Sunnyvale, Calif.) through a 10x objective microscope lens, displaying 4 or 9 sites per well. […] Cells were defined according to fluorescence intensity and size at different wavelengths. Data from all sites per well were averaged to one data point.
Neurons were pre-incubated with each compound for 1 h followed by application of FeSO4.

`CC(C)[N+]1(C)[C@@H]2CC[C@H]1CC(OC(=O)C(CO)c1ccccc1)C2.[Br-]` (stereo partly shown) [IPRATROPIUM BROMIDE] was tested, and the “Drug % control (mean): number of neurons normalized to untreated control” value was 63.39%.

same assay, conditions: Homo sapiens, Neuron, 24 h, read-out: Drug % control (mean): number of neurons normalized to untreated control

Work on `CN1[C@@H]2CC[C@H]1C[C@@H](OC(c1ccccc1)c1ccccc1)C2` [BENZTROPINE] yielded a viability at 10 µM of 11.4%.

same assay, conditions: Homo sapiens, Neuron; drug 10 μM 1 h before FeSO4 25 or 50 μM; MAP-2 neurons after 24 h; read-out: Drug % control (mean): number of neurons normalized to untreated control

Going from `CO[C@H]1/C=C/O[C@@]2(C)Oc3c(C)c(O)c4c(O)c(c5c(nc6cc(C)ccn65)c4c3C2=O)NC(=O)/C(C)=C\C=C\[C@H](C)[C@H](O)[C@@H](C)[C@@H](O)[C@@H](C)[C@H](OC(C)=O)[C@@H]1C` [RIFAXIMIN] to `CC[C@H]1OC(=O)[C@H](C)[C@@H](O[C@H]2C[C@@](C)(OC)[C@@H](O)[C@H](C)O2)[C@H](C)[C@@H](O[C@@H]2O[C@H](C)C[C@H](N(C)C)[C@H]2O)[C@](C)(OC)C[C@@H](C)C(=O)[C@H](C)[C@@H](O)[C@]1(C)O` [CLARITHROMYCIN], the viability at 10 µM rises from 53.8% to 55.1%.

Compared with `OCCN1CCN(CCCN2c3ccccc3Sc3ccc(Cl)cc32)CC1` [PERPHENAZINE], `CN1CCN(CCCN2c3ccccc3Sc3ccc(Cl)cc32)CC1` [PROCHLORPERAZINE EDISYLATE] is lower in viability at 10 µM: 78.8% for the first, 4.88% for the second.

First: CCc1cccc2c3c([nH]c12)C(CC)(CC(=O)O)OCC3 (stereo not shown) [ETODOLAC]
Second: CCC1(c2ccccc2)C(=O)NCNC1=O [PRIMIDONE]
The viability at 10 µM of the first is lower: 34.4% for the first, 45.2% for the second.

Going from `COc1c2occc2cc2ccc(=O)oc12` [METHOXSALEN] to `COc1ccc2c(c1)c(CC(=O)O)c(C)n2C(=O)c1ccc(Cl)cc1` [INDOMETHACIN], the viability at 10 µM falls from 59% to 4.52%.

Compared with `Oc1ncnc2[nH]ncc12` [ALLOPURINOL], `Cn1cnc([N+](=O)[O-])c1Sc1ncnc2nc[nH]c12` [AZATHIOPRINE] is lower in viability at 10 µM: 25.5% for the first, 4.65% for the second.

First: COCCc1ccc(OCC(O)CNC(C)C)cc1 (stereo not shown) [METOPROLOL TARTRATE]
Second: CC(C)Cc1ccc(C(C)C(=O)O)cc1 (stereo not shown) [IBUPROFEN]
The viability at 10 µM of the first is higher: 71.5% for the first, 2.48% for the second.

Going from `OC(CCN1CCCC1)(c1ccccc1)C1CCCCC1` (stereo not shown) [PROCYCLIDINE HYDROCHLORIDE] to `CN1CCC[C@@H]1CCO[C@](C)(c1ccccc1)c1ccc(Cl)cc1` [CLEMASTINE], the viability at 10 µM falls from 95.6% to 6.19%.

First: COc1ccccc1OCC(O)CO (stereo not shown) [GUAIFENESIN]
Second: CC(=O)Oc1ccccc1C(=O)O [ASPIRIN]
The viability at 10 µM of the first is lower: 3.28% for the first, 68.2% for the second.

Compared with `CCN(CCO)CCCC(C)Nc1ccnc2cc(Cl)ccc12` (stereo not shown) [HYDROXYCHLOROQUINE SULFATE], `CCN(CC)CCNC(=O)c1ccc(N)cc1` [PROCAINAMIDE HYDROCHLORIDE] is lower in viability at 10 µM: 75.9% for the first, 64.3% for the second.

First: CCOC(=O)C1=C(COCCN)NC(C)=C(C(=O)OC)C1c1ccccc1Cl (stereo not shown) [AMLODIPINE BESYLATE]
Second: CCOC(=O)[C@H](CCc1ccccc1)N[C@H]1CCc2ccccc2N(CC(=O)O)C1=O [BENAZEPRIL HYDROCHLORIDE]
The viability at 10 µM of the first is higher: 93.1% for the first, 72.2% for the second.

First: CN(C)C(=O)Oc1cccc([N+](C)(C)C)c1 [NEOSTIGMINE BROMIDE]
Second: CC(C[N+](C)(C)C)OC(N)=O (stereo not shown) [BETHANECHOL CHLORIDE]
The viability at 10 µM of the first is higher: 44.8% for the first, 16% for the second.

Going from `CN1CCC(OC(c2ccccc2)c2ccccc2)CC1` [HYDROCHLORIDE] to `CN(C)CCOC(c1ccccc1)c1ccccc1` [DIPHENHYDRAMINE HYDROCHLORIDE], the viability at 10 µM rises from 4.61% to 74.7%.

Compared with `CC1(C)O[C@@H]2[C@@H](CO[C@@]3(COS(N)(=O)=O)OC(C)(C)O[C@@H]23)O1` [TOPIRAMATE], `CCCN(CCC)S(=O)(=O)c1ccc(C(=O)O)cc1` [PROBENECID] is higher in viability at 10 µM: 46.1% for the first, 71.5% for the second.

Compared with `CCn1cc(C(=O)O)c(=O)c2cc(F)c(N3CCNCC3)cc21` [NORFLOXACIN], `CN1CCN(C2=Nc3cc(Cl)ccc3Nc3ccccc32)CC1` [CLOZAPINE] is higher in viability at 10 µM: 13.6% for the first, 101% for the second.

First: CC(C)c1nc(N(C)S(C)(=O)=O)nc(-c2ccc(F)cc2)c1/C=C/[C@@H](O)C[C@@H](O)CC(=O)O [ROSUVASTATIN]
Second: CC[C@H](C)C(=O)O[C@H]1C[C@H](O)C=C2C=C[C@H](C)[C@H](CC[C@@H](O)C[C@@H](O)CC(=O)O)[C@H]21 [PRAVASTATIN SODIUM]
The viability at 10 µM of the first is lower: 35.4% for the first, 40.5% for the second.

First: Nc1ccc(S(=O)(=O)c2ccc(N)cc2)cc1 [DAPSONE]
Second: NS(=O)(=O)c1cc(C2(O)NC(=O)c3ccccc32)ccc1Cl (stereo not shown) [CHLORTHALIDONE]
The viability at 10 µM of the first is higher: 18.6% for the first, 7.66% for the second.

First: NC(=O)NO [HYDROXYUREA]
Second: NCC(CC(=O)O)c1ccc(Cl)cc1 (stereo not shown) [BACLOFEN]
The viability at 10 µM of the first is lower: 3.31% for the first, 35.8% for the second.

Going from `CC(C)(Oc1ccc(CCNC(=O)c2ccc(Cl)cc2)cc1)C(=O)O` [BEZAFIBRATE] to `COc1ccc(Cl)cc1C(=O)NCCc1ccc(S(=O)(=O)NC(=O)NC2CCCCC2)cc1` [GLYBURIDE], the viability at 10 µM rises from 35.5% to 45.2%.

First: C1N2CN3CN1CN(C2)C3 [METHENAMINE]
Second: CN1CCC(=C2c3ccccc3CC(=O)c3sccc32)CC1 [KETOTIFEN FUMARATE]
The viability at 10 µM of the first is higher: 1.94% for the first, 1.77% for the second.

Going from `C[C@H]1c2cccc(O)c2C(=O)C2=C(O)[C@]3(O)C(=O)C(C(N)=O)=C(O)[C@@H](N(C)C)[C@@H]3[C@@H](O)[C@@H]21` [DOXYCYCLINE HYDROCHLORIDE] to `CCCCNc1cc(C(=O)O)cc(S(N)(=O)=O)c1Oc1ccccc1` [BUMETANIDE], the viability at 10 µM rises from 12.7% to 29.4%.

Compared with `OC[C@H]1O[C@@H](O[C@@H]2[C@@H](CO)OC(O)(CO)[C@H]2O)[C@H](O)[C@@H](O)[C@H]1O` (mixture of isomers) [LACTULOSE], `CCC[C@H](N[C@@H](C)C(=O)N1[C@H](C(=O)O)C[C@@H]2CCCC[C@@H]21)C(=O)OCC` [PERINDOPRIL ERBUMINE] is lower in viability at 10 µM: 80.8% for the first, 49.4% for the second.

First: C[C@@H]1O[C@@H]1P(=O)(O)O [FOSFOMYCIN]
Second: CN1C(C(=O)Nc2ccccn2)=C(O)c2ccccc2S1(=O)=O [PIROXICAM]
The viability at 10 µM of the first is lower: 31.2% for the first, 36.2% for the second.

Going from `CNCCC(Oc1ccc(C(F)(F)F)cc1)c1ccccc1` (stereo not shown) [FLUOXETINE] to `Cc1ccccc1C(OCCN(C)C)c1ccccc1` (stereo not shown) [ORPHENADRINE CITRATE], the viability at 10 µM falls from 81.4% to 54.5%.

Compared with `CCOC(=O)[C@H](CCc1ccccc1)N[C@@H](C)C(=O)N1Cc2ccccc2C[C@H]1C(=O)O` [QUINAPRIL HYDROCHLORIDE], `O=C1C(CC[S+]([O-])c2ccccc2)C(=O)N(c2ccccc2)N1c1ccccc1` (stereo not shown) [SULFINPYRAZONE] is higher in viability at 10 µM: 41.5% for the first, 46.5% for the second.

Compared with `Nc1nc2nc[nH]c2c(=S)[nH]1` [THIOGUANINE], `CC(=O)OCC(CCn1cnc2cnc(N)nc21)COC(C)=O` [FAMCICLOVIR] is higher in viability at 10 µM: 21.7% for the first, 91% for the second.

Compared with `CN(C)CCc1c[nH]c2ccc(C[C@H]3COC(=O)N3)cc12` [ZOLMITRIPTAN], `CCCCCCc1ccc(O)cc1O` [HEXYLRESORCINOL] is higher in viability at 10 µM: 54.9% for the first, 71.5% for the second.

Going from `CNC(=C[N+](=O)[O-])NCCSCc1ccc(CN(C)C)o1` [RANITIDINE] to `Cc1ncc([N+](=O)[O-])n1CCO` [METRONIDAZOLE], the viability at 10 µM falls from 40.2% to 27.1%.

In the case of `NS(=O)(=O)c1cc2c(cc1Cl)NCNS2(=O)=O` [HYDROCHLOROTHIAZIDE], the viability at 10 µM is reported as 2.55%.

same assay, conditions: drug 10 μM 1 h before FeSO4 25 or 50 μM; MAP-2 neurons after 24 h

Compared with `NCC[C@H](O)C(=O)N[C@@H]1C[C@H](N)[C@@H](O[C@H]2O[C@H](CN)[C@@H](O)[C@H](O)[C@H]2O)[C@H](O)[C@H]1O[C@H]1O[C@H](CO)[C@@H](O)[C@H](N)[C@H]1O.O=S(=O)(O)O.O=S(=O)(O)O` [AMIKACIN SULFATE], CRESOL is lower in “Drug % control (mean): number of neurons normalized to untreated control” value: 35.92% for the first, 6.04% for the second.

Going from `CCCc1nc(C(C)(C)O)c(C(=O)OCc2oc(=O)oc2C)n1Cc1ccc(-c2ccccc2-c2nnn[nH]2)cc1` [OLIVEESARTAN MEDOXOMIL] to `Nc1nc(=O)c2c([nH]1)NCC(CNc1ccc(C(=O)N[C@@H](CCC(=O)[O-])C(=O)[O-])cc1)N2C=O.[Ca+2]` (stereo partly shown) [LEUCOVORIN CALCIUM], the “Drug % control (mean): number of neurons normalized to untreated control” value falls from 55.85% to 24.84%.
